From patent US12077503B2, “Substituted cyclic amides and their use as herbicides” (FMC CORPORATION, priority 2015, dated 2024)
Read-outs that look alike come from different tables or passages of the source.

Assays:
Kochia (Kochia scoparia) = assay: Test A preemergence; format: in vivo; conditions: Bassia scoparia, pre-emergence, 240 h; for pest or weed control at 125 g/ha: 125 g ai/ha; for pest or weed control at 500 g/ha: 500 g ai/ha
Method in brief: (§1)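 Treatment is preemergence as a directed soil spray after planting, or postemergence at the one- to two-leaf stage, with test chemical in a non-phytotoxic solvent mixture plus surfactant. Plants stay in the greenhouse about 10 d before visual injury scoring on a 0 to 100 scale versus untreated controls.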

[1] = tested on: ryegrass, Italian (Italian ryegrass, Lolium multiflorum); assay: Test A preemergence; format: in vivo; conditions: Lolium multiflorum, pre-emergence, 240 h; for pest or weed control at 125 g/ha: 125 g ai/ha; for pest or weed control at 500 g/ha: 500 g ai/ha
Method in brief: as §1

[2] = tested on: pigweed (Amaranthus retroflexus); assay: Test A preemergence; format: in vivo; conditions: Amaranthus retroflexus, pre-emergence, 240 h; for pest or weed control at 125 g/ha: 125 g ai/ha; for pest or weed control at 500 g/ha: 500 g ai/ha
[3] = tested on: ragweed (common ragweed, Ambrosia elatior); assay: Test A preemergence; format: in vivo; conditions: Ambrosia artemisiifolia, pre-emergence, 240 h; for pest or weed control at 125 g/ha: 125 g ai/ha; for pest or weed control at 500 g/ha: 500 g ai/ha
Method in brief: as §1

[4] = tested on: barnyardgrass (Echinochloa crus-galli); assay: Test A preemergence; format: in vivo; conditions: Echinochloa crus-galli, pre-emergence, 240 h; for pest or weed control at 125 g/ha: 125 g ai/ha; for pest or weed control at 500 g/ha: 500 g ai/ha
Method in brief: as §1

[5] = preemergence, 0 to 100 scale where 0 is no effect and 100 is complete control, read-out: Kochia plant response rating
[6] = Preemergence, visual injury vs untreated controls after approximately 10 d, read-out: Kochia plant response rating (0 to 100 scale where 0 is no effect and 100 is complete control)
[7] = preemergence, 0 to 100 scale where 0 is no effect and 100 is complete control, read-out: Ryegrass, Italian plant response rating
[8] = Preemergence, visual injury vs untreated controls after approximately 10 d, read-out: Ryegrass, Italian plant response rating (0 to 100 scale where 0 is no effect and 100 is complete control)
[9] = preemergence, 0 to 100 scale where 0 is no effect and 100 is complete control, read-out: Pigweed plant response rating
[10] = Preemergence, visual injury vs untreated controls after approximately 10 d, read-out: Pigweed plant response rating (0 to 100 scale where 0 is no effect and 100 is complete control)
[11] = preemergence, 0 to 100 scale where 0 is no effect and 100 is complete control, read-out: Ragweed plant response rating
[12] = Preemergence, visual injury vs untreated controls after approximately 10 d, read-out: Ragweed plant response rating (0 to 100 scale where 0 is no effect and 100 is complete control)
[13] = preemergence, 0 to 100 scale where 0 is no effect and 100 is complete control, read-out: Barnyardgrass plant response rating
[14] = Preemergence, visual injury vs untreated controls after approximately 10 d, read-out: Barnyardgrass plant response rating (0 to 100 scale where 0 is no effect and 100 is complete control)
[15] = preemergence, visual injury rating about 10 d after treatment, 0 to 100 scale (0 no effect, 100 complete control), read-out: Kochia plant response rating
[16] = preemergence, visual injury rating about 10 d after treatment, 0 to 100 scale (0 no effect, 100 complete control), read-out: Ryegrass, Italian plant response rating
[17] = preemergence, visual injury rating about 10 d after treatment, 0 to 100 scale (0 no effect, 100 complete control), read-out: Pigweed plant response rating
[18] = preemergence, visual injury rating about 10 d after treatment, 0 to 100 scale (0 no effect, 100 complete control), read-out: Ragweed plant response rating
[19] = preemergence, visual injury rating about 10 d after treatment, 0 to 100 scale (0 no effect, 100 complete control), read-out: Barnyardgrass plant response rating
[20] = Preemergence, visual injury rating after approximately 10 d, read-out: Kochia plant response rating (0 to 100 scale, 0 is no effect, 100 is complete control)
[21] = Preemergence, visual injury rating after approximately 10 d, read-out: Ryegrass, Italian plant response rating (0 to 100 scale, 0 is no effect, 100 is complete control)
[22] = Preemergence, visual injury rating after approximately 10 d, read-out: Pigweed plant response rating (0 to 100 scale, 0 is no effect, 100 is complete control)
[23] = Preemergence, visual injury rating after approximately 10 d, read-out: Ragweed plant response rating (0 to 100 scale, 0 is no effect, 100 is complete control)
[24] = Preemergence, visual injury rating after approximately 10 d, read-out: Barnyardgrass plant response rating (0 to 100 scale, 0 is no effect, 100 is complete control)
[25] = preemergence, 0 to 100 scale where 0 is no effect and 100 is complete control, approx. 10 d, read-out: Kochia plant response rating
[26] = preemergence, 0 to 100 scale where 0 is no effect and 100 is complete control, approx. 10 d, read-out: Ryegrass, Italian plant response rating
[27] = preemergence, 0 to 100 scale where 0 is no effect and 100 is complete control, approx. 10 d, read-out: Pigweed plant response rating
[28] = preemergence, 0 to 100 scale where 0 is no effect and 100 is complete control, approx. 10 d, read-out: Ragweed plant response rating

| Compound | pest or weed control at 125 g/ha (Kochia (Kochia scoparia); [5]) [%] | pest or weed control at 500 g/ha (Kochia (Kochia scoparia); [6]) [%] | pest or weed control at 125 g/ha [1, 7] [%] | pest or weed control at 500 g/ha [1, 8] [%] | pest or weed control at 125 g/ha [2, 9] [%] | pest or weed control at 500 g/ha [2, 10] [%] | pest or weed control at 125 g/ha [3, 11] [%] | pest or weed control at 500 g/ha [3, 12] [%] | pest or weed control at 125 g/ha [4, 13] [%] | pest or weed control at 500 g/ha [4, 14] [%] | melting point [°C] | pest or weed control at 500 g/ha (Kochia (Kochia scoparia); [15]) [%] | pest or weed control at 500 g/ha [1, 16] [%] | pest or weed control at 500 g/ha [2, 17] [%] | pest or weed control at 500 g/ha [3, 18] [%] | pest or weed control at 500 g/ha [4, 19] [%] | pest or weed control at 125 g/ha [4, 24] [%] | further results |
| --- | --- | --- | --- | --- | --- | --- | --- | --- | --- | --- | --- | --- | --- | --- | --- | --- | --- | --- |
| CN1CC(c2cccc(C=O)c2)C(C(=O)Nc2ccccc2F)C1=O (centres unmarked) [Compound 844] | 0 | 0 | 0 | 0 | 0 | 0 | 0 | 0 | 0 | 20 | 133 to 136 | – | – | – | – | – | – | – |
| O=C1NCC(c2cccc(I)c2)C1C(=O)Nc1ccccc1F (centres unmarked) [Compound 845] | 40 | 90 | 0 | 30 | 0 | 0 | 0 | 0 | 90 | 90 | 150 to 153 | – | – | – | – | – | – | – |
| O=C1NC[C@H](c2cncc(C(F)(F)F)c2)[C@H]1C(=O)Nc1ccccc1F [Compound 887] | 0 | 20 | 0 | 0 | 0 | 0 | 0 | 0 | 90 | 90 | 192 to 195 | – | – | – | – | – | – | – |
| C=CCOc1cccc(C2CN(C)C(=O)C2C(=O)Nc2cccc(F)c2F)c1 (centres unmarked) [Compound 933] | 50 | – | – | – | 30 | – | – | – | 90 | – | 94 to 97 | 90 | 70 | 30 | 90 | 100 | – | – |
| CN1C[C@H](c2ccc(C(F)(F)F)cc2)[C@@H](C(=O)Nc2cccc(F)c2Br)C1=O [Compound 937] | 80 | – | – | – | 50 | – | – | – | 90 | – | 160 to 163 | 80 | 50 | 80 | 80 | 90 | – | – |
| CN1CC(c2ccccc2OC(F)(F)C(F)F)C(C(=O)Nc2ccccc2F)C1=O (centres unmarked) [Compound 1053] | – | – | – | – | – | – | – | – | – | – | 118 to 121 | 0 | 0 | 0 | 0 | 60 | 0 | pest or weed control at 125 g/ha (Kochia (Kochia scoparia); [20]): 0%; pest or weed control at 125 g/ha [1, 21]: 0%; pest or weed control at 125 g/ha [2, 22]: 0%; pest or weed control at 125 g/ha [3, 23]: 0% |
| O=C1NCC(c2ccccc2OC(F)(F)C(F)F)C1C(=O)Nc1cccc(F)c1F (centres unmarked) [Compound 1054] | – | – | – | – | – | – | – | – | – | – | 192 to 196 | 0 | 0 | 0 | 0 | 0 | 0 | pest or weed control at 125 g/ha (Kochia (Kochia scoparia); [20]): 0%; pest or weed control at 125 g/ha [1, 21]: 0%; pest or weed control at 125 g/ha [2, 22]: 0%; pest or weed control at 125 g/ha [3, 23]: 0% |
| CSc1ccccc1NC(=O)C1C(=O)NCC1C=C(C)C (centres unmarked) [Compound 1055] | – | – | – | – | – | – | – | – | – | – | 100 to 104 | 0 | 0 | 0 | 0 | 0 | 0 | pest or weed control at 125 g/ha (Kochia (Kochia scoparia); [25]): 0%; pest or weed control at 125 g/ha [1, 26]: 0%; pest or weed control at 125 g/ha [2, 27]: 0%; pest or weed control at 125 g/ha [3, 28]: 0% |
| CN1CC(c2ccccc2OC(F)(F)C(F)F)C(C(=O)Nc2cccc(F)c2F)C1=O (centres unmarked) [Compound 1056] | – | – | – | – | – | – | – | – | – | – | 130 to 134 | 0 | 0 | 0 | 0 | 90 | 90 | pest or weed control at 125 g/ha (Kochia (Kochia scoparia); [25]): 0%; pest or weed control at 125 g/ha [1, 26]: 0%; pest or weed control at 125 g/ha [2, 27]: 0%; pest or weed control at 125 g/ha [3, 28]: 0% |
